Data from PMC6222377, “Design, Synthesis, and Evaluation of Amphiphilic Cyclic and Linear Peptides Composed of Hydrophobic and Positively-Charged Amino Acids as Antibacterial Agents” (Molecules : A Journal of Synthetic Chemistry and Natural …, 2018).
≈ marks a conversion by molar mass, not a printed value. Where a SMILES comes first, the peptide text is derived from it. [ ]: non-standard residue; d: D form. Trp(1-Me) = Cn1cc(C[C@H](N)C(=O)O)c2ccccc21

What was measured:
E. coli (ATCC 25922) = experiment: microbe, parasite or virus in culture; type: cell-based, Escherichia coli
Description: (§1) To evaluate the antibacterial activity of all the synthesized peptides, the minimum inhibitory concentration (MIC) was determined using the micro broth dilution method (Table 1), as per the Clinical Laboratory Standards Institute (CLSI). The MIC is a quantitative measurement of the minimum concentration of a compound required to inhibit visible bacterial growth. MIC values for all 20 peptides were measured against E. coli (ATCC 25922) and MRSA (Los Angeles County clone (LAC)) (Table 1). These two bacterial strains represent Gram-negative and Gram-positive pathogens. MRSA is one of the most challenging Gram-positive bacteria that leads to a life-threatening infection, while E. coli is a Gram-negative bacteria that has the ability to use gene mutations and multidrug efflux pumps that can result in multidrug resistance.
(§2) Two bacterial strains, methicillin-resistant Staphylococcus aureus (LAC) and Escherichia coli (ATCC 25922) were used for the evaluation of the antibacterial activities of the peptides. […] MRSA and E. coli were inoculated into Mueller Hinton (MH) broth (5 mL) at 37 °C. After shaking in an orbital shaker (175 rpm) overnight, the cultured suspension was diluted using normal saline (5 mL). […] An amount of 40 μL of the McFarland solution was then added to 5980 μL of MH media to afford 1/150 dilution. […] Minimal inhibitory concentrations (MIC) values were obtained using the broth micro dilution assay. In brief, first, the peptides and controls (200 μL) were added to the first column of the 96 well plate. Second, 2-fold serial dilutions of the compound were accomplished by adding media (100 μL) to other wells. After the serial dilution, the bacterial solution (100 μL) was added to all the wells. Finally, the microtiter plates were incubated statically at 37 °C overnight. MIC values were obtained by observing the minimal concentration at which bacterial growth was not visible. All the determinations were carried out in triplicate.

[1] = test system: MRSA (Los Angeles County clone (LAC)); experiment: microbe, parasite or virus in culture; type: cell-based, methicillin-resistant Staphylococcus aureus; settings: for MIC MRSA (LAC): Los Angeles County clone (LAC); for reduction of antibacterial activity compared with [R4W4]: comparison of MIC values with lead compound [R4W4]
Description: as §1, §2

MRSA (ATCC 43300) = settings: cited from earlier work
Description: Synthesis of AMPs by modifying the structures of amino acids is relatively easy. Change in the structure of natural and synthetic AMPs can be used to develop new active compounds with optimal activity and stability. Developing small-sized linear or cyclic peptides for AMP application is more accessible than the complex AMPs isolated from natural products containing disulfide bonds. The cyclic peptides are polypeptides chains containing a cyclic structure synthesized by linking the carboxylic acid and amino groups in the peptide.

| Compound | MIC E. coli (ATCC 25922) (E. coli (ATCC 25922)) [µg/mL] | MIC MRSA (LAC) [1] [µg/mL] | also measured |
| --- | --- | --- | --- |
| H-RRRRWWWW-OH [R4W4 (1)] | 64 | 32 | – |
| H-IIIIRRRR-OH [I4R4 (5)] | >128 | >128 | – |
| H-YYYYRRRR-OH [Y4R4 (6)] | >128 | >128 | – |
| N=C(N)NCCC[C@@H]1NC(=O)[C@H](CCCNC(=N)N)NC(=O)[C@H](CCCNC(=N)N)NC(=O)[C@H](Cc2c[nH]c3ccccc23)NC(=O)[C@H](Cc2c[nH]c3ccccc23)NC(=O)[C@H](Cc2c[nH]c3ccccc23)NC(=O)[C@H](Cc2c[nH]c3ccccc23)NC(=O)[C@H](CCCNC(=N)N)NC1=O [[R4W4] (7)] (cyclo(RRRRWWWW)) | 16 (≈ 11.7 µM) | 4 (≈ 2.92 µM) | MIC against MRSA (ATCC 43300) (MRSA (ATCC 43300)): 2.67 µg/mL (≈ 1.95 µM); MIC against MRSA as printed in the cytotoxicity section ([1]; text of section 2.3): 4 µM (≈ 5.48 µg/mL) |
| N=C(N)NCCC[C@@H]1NC(=O)[C@H](CCCNC(=N)N)NC(=O)[C@H](CCCNC(=N)N)NC(=O)[C@H](CCCNC(=N)N)NC(=O)[C@H](Cc2c[nH]c3ccccc23)NC(=O)[C@H](Cc2c[nH]c3ccccc23)NC(=O)[C@H](Cc2c[nH]c3ccccc23)NC(=O)[C@H](Cc2c[nH]c3ccccc23)NC(=O)[C@H](Cc2c[nH]c3ccccc23)NC(=O)[C@H](CCCNC(=N)N)NC(=O)[C@H](CCCNC(=N)N)NC(=O)[C@H](CCCNC(=N)N)NC1=O [[R7W5] (17)] (cyclo(RRRRRRRWWWWW)) | 64 (≈ 31.6 µM) | 32 (≈ 15.8 µM) | – |
| N=C(N)NCCC[C@H]1NC(=O)[C@H](Cc2c[nH]c3ccccc23)NC(=O)[C@H](Cc2c[nH]c3ccccc23)NC(=O)[C@H](Cc2c[nH]c3ccccc23)NC(=O)[C@H](Cc2c[nH]c3ccccc23)NC(=O)[C@@H](CCCNC(=N)N)NC(=O)[C@@H](CCCNC(=N)N)NC(=O)[C@@H](CCCNC(=N)N)NC1=O [[DR4W4] (14)] (cyclo([dR][dR][dR][dR]WWWW)) | 16 (≈ 11.7 µM) | 8 (≈ 5.84 µM) | reduction of antibacterial activity compared with [R4W4] [1]: two-fold |
| H-LLLLRRRR-OH [L4R4 (4)] | >128 | >128 | – |
| H-FFFFRRRR-OH [F4R4 (3)] | >128 | >128 | – |
| CN[C@H](CC(C)C)C(=O)N[C@H]1C(=O)N[C@@H](CC(N)=O)C(=O)N[C@H]2C(=O)N[C@H]3C(=O)N[C@H](C(=O)N[C@H](C(=O)O)c4cc(O)cc(O)c4-c4cc3ccc4O)[C@H](O)c3ccc(c(Cl)c3)Oc3cc2cc(c3O[C@@H]2O[C@H](CO)[C@@H](O)[C@H](O)[C@H]2O[C@H]2C[C@](C)(N)[C@H](O)[C@H](C)O2)Oc2ccc(cc2Cl)[C@H]1O [Vancomycin, reference compound] | – | – | MIC ([1]; Staphylococcus aureus, MRSA, read-out: MIC MRSA (LAC)): 1 µg/mL (≈ 0.69 µM) |
| NCCCC[C@@H]1NC(=O)[C@H](CCCCN)NC(=O)[C@H](CCCCN)NC(=O)[C@H](Cc2c[nH]c3ccccc23)NC(=O)[C@H](Cc2c[nH]c3ccccc23)NC(=O)[C@H](Cc2c[nH]c3ccccc23)NC(=O)[C@H](Cc2c[nH]c3ccccc23)NC(=O)[C@H](CCCCN)NC1=O [[K4W4] (15)] (cyclo(KKKKWWWW)) | 16 (≈ 12.7 µM) | 8 (≈ 6.36 µM) | reduction of antibacterial activity compared with [R4W4] [1]: two-fold |
| N=C(N)NCCC[C@@H]1NC(=O)[C@H](CCCNC(=N)N)NC(=O)[C@H](CCCNC(=N)N)NC(=O)[C@H](CCCNC(=N)N)NC(=O)[C@H](Cc2c[nH]c3ccccc23)NC(=O)[C@H](Cc2c[nH]c3ccccc23)NC(=O)[C@H](Cc2c[nH]c3ccccc23)NC(=O)[C@H](Cc2c[nH]c3ccccc23)NC(=O)[C@H](Cc2c[nH]c3ccccc23)NC(=O)[C@H](Cc2c[nH]c3ccccc23)NC(=O)[C@H](Cc2c[nH]c3ccccc23)NC(=O)[C@H](CCCNC(=N)N)NC(=O)[C@H](CCCNC(=N)N)NC(=O)[C@H](CCCNC(=N)N)NC1=O [[R7W7] (20)] (cyclo(RRRRRRRWWWWWWW)) | 32 (≈ 13.4 µM) | 8 (≈ 3.34 µM) | – |
| N=C(N)NCCC[C@@H]1NC(=O)[C@H](CCCNC(=N)N)NC(=O)[C@H](CCCNC(=N)N)NC(=O)[C@H](Cc2ccc(O)cc2)NC(=O)[C@H](Cc2ccc(O)cc2)NC(=O)[C@H](Cc2ccc(O)cc2)NC(=O)[C@H](Cc2ccc(O)cc2)NC(=O)[C@H](CCCNC(=N)N)NC1=O [[Y4R4] (8)] (cyclo(YYYYRRRR)) | >128 | >128 | – |
| O=C(O)CC[C@@H]1NC(=O)[C@H](CCC(=O)O)NC(=O)[C@H](CCC(=O)O)NC(=O)[C@H](Cc2c[nH]c3ccccc23)NC(=O)[C@H](Cc2c[nH]c3ccccc23)NC(=O)[C@H](Cc2c[nH]c3ccccc23)NC(=O)[C@H](Cc2c[nH]c3ccccc23)NC(=O)[C@H](CCC(=O)O)NC1=O [[E4W4] (16)] (cyclo(EEEEWWWW)) | >128 | >128 | antibacterial activity (in words) ([1]; text summary of MIC results): abolished the activity completely |
| CC(C)C[C@@H]1NC(=O)[C@H](CCCNC(=N)N)NC(=O)[C@H](CCCNC(=N)N)NC(=O)[C@H](CCCNC(=N)N)NC(=O)[C@H](CCCNC(=N)N)NC(=O)[C@H](CC(C)C)NC(=O)[C@H](CC(C)C)NC(=O)[C@H](CC(C)C)NC1=O [[L4R4] (12)] (cyclo(LLLLRRRR)) | >128 | >128 | – |
| C[C@@H]1NC(=O)[C@H](C)NC(=O)[C@H](C)NC(=O)[C@H](CCCNC(=N)N)NC(=O)[C@H](CCCNC(=N)N)NC(=O)[C@H](CCCNC(=N)N)NC(=O)[C@H](CCCNC(=N)N)NC(=O)[C@H](C)NC1=O [[A4R4] (10)] (cyclo(AAAARRRR)) | >128 | >128 | – |
| N=C(N)NCCC[C@@H]1NC(=O)[C@H](CCCNC(=N)N)NC(=O)[C@H](CCCNC(=N)N)NC(=O)[C@H](CCCNC(=N)N)NC(=O)[C@H](Cc2c[nH]c3ccccc23)NC(=O)[C@H](Cc2c[nH]c3ccccc23)NC(=O)[C@H](Cc2c[nH]c3ccccc23)NC(=O)[C@H](Cc2c[nH]c3ccccc23)NC(=O)[C@H](Cc2c[nH]c3ccccc23)NC(=O)[C@H](Cc2c[nH]c3ccccc23)NC(=O)[C@H](CCCNC(=N)N)NC(=O)[C@H](CCCNC(=N)N)NC(=O)[C@H](CCCNC(=N)N)NC1=O [[R7W6] (19)] (cyclo(RRRRRRRWWWWWW)) | 64 (≈ 29 µM) | 16 (≈ 7.24 µM) | – |
| CC[C@H](C)[C@@H]1NC(=O)[C@H](CCCNC(=N)N)NC(=O)[C@H](CCCNC(=N)N)NC(=O)[C@H](CCCNC(=N)N)NC(=O)[C@H](CCCNC(=N)N)NC(=O)[C@H]([C@@H](C)CC)NC(=O)[C@H]([C@@H](C)CC)NC(=O)[C@H]([C@@H](C)CC)NC1=O [[I4R4] (11)] (cyclo(IIIIRRRR)) | >128 | >128 | – |
| Cn1cc(C[C@@H]2NC(=O)[C@H](CCCNC(=N)N)NC(=O)[C@H](CCCNC(=N)N)NC(=O)[C@H](CCCNC(=N)N)NC(=O)[C@H](CCCNC(=N)N)NC(=O)[C@H](Cc3cn(C)c4ccccc34)NC(=O)[C@H](Cc3cn(C)c4ccccc34)NC(=O)[C@H](Cc3cn(C)c4ccccc34)NC2=O)c2ccccc21 [[W(Me)4R4] (13)] (cyclo([Trp(1-Me)][Trp(1-Me)][Trp(1-Me)][Trp(1-Me)]RRRR)) | 16 (≈ 11.2 µM) | 8 (≈ 5.61 µM) | – |
| N=C(N)NCCC[C@@H]1NC(=O)[C@H](CCCNC(=N)N)NC(=O)[C@H](CCCNC(=N)N)NC(=O)[C@H](Cc2ccccc2)NC(=O)[C@H](Cc2ccccc2)NC(=O)[C@H](Cc2ccccc2)NC(=O)[C@H](Cc2ccccc2)NC(=O)[C@H](CCCNC(=N)N)NC1=O [[F4R4] (9)] (cyclo(RRRRFFFF)) | >128 | >128 | – |
| C[C@@H](O)[C@H]1C(=O)N2C(C(=O)O)=C(S[C@@H]3CN[C@H](C(=O)N(C)C)C3)[C@H](C)[C@H]12 [Meropenem, reference compound] | – | – | MIC (E. coli (ATCC 25922); Escherichia coli, ATCC25922, broth microdilution, Mueller Hinton broth, 37 °C overnight, visible growth, triplicate): 0.25 µg/mL (≈ 0.652 µM) |
| N=C(N)NCCC[C@H](NC(=O)[C@H](CCCNC(=N)N)NC(=O)[C@H](CCCNC(=N)N)NC(=O)[C@@H](N)CCCNC(=N)N)C(=O)N[C@@H](Cc1c[nH]c2ccccc12)C(=O)N[C@@H](Cc1c[nH]c2ccccc12)C(=O)N[C@@H](Cc1c[nH]c2ccccc12)C(=O)N[C@@H](Cc1c[nH]c2ccccc12)C(=O)N[C@@H](Cc1c[nH]c2ccccc12)C(=O)O [R4W5 (18)5] | 32 (≈ 20.3 µM) | 16 (≈ 10.2 µM) | – |
| H-AAAARRRR-OH [A4R4 (2)] | >128 | >128 | – |
